Experimental data from patent publication US20150299188A1, “HETEROCYCLIC COMPOUND” (priority 2012, published 2015).

Test system: FLAP (5-lipoxygenase activating protein)
Assay: In vitro binding test: displacement of [3H]-7-chloro-3-(5-((3-fluoropyridin-2-yl)methoxy)-2-methylphenyl)-3,4-dihydroquinazolin-2(1H)-one from Sf9 microsome fractions
Design: species or system human and mouse
Conditions: Sf9 microsome fractions expressing FLAP; 100% = radioligand binding with 10 μM sodium 3-(3-(tert-butylsulfanyl)-1-(4-chlorobenzyl)-5-isopropyl-1H-indol-2-yl)-2,2-dimethylpropanoate, 0% = DMSO; test compound concentration not given
Outline: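 Sf9 microsomes expressing human or mouse FLAP (2 μg/mL) preincubated with compound 10 min at room temperature, then 120 nM tritiated quinazolinone ligand added for 60 min; buffer 100 mM Tris-HCl pH 7.5 with NaCl, EDTA, DTT, glycerol, Tween20. Bound ligand filtered and counted by scintillation; 10 μM indole propanoate defines 100% inhibition, DMSO 0%.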

Compound	inhibitory rate (%)
COC(=O)c1ccc(OCc2c(F)cccc2F)cc1N1Cc2ccccc2NC1=O [Example 188, methyl 4-((2,6-difluorobenzyl)oxy)-2-(2-oxo-1,4-dihydroquinazolin-3(2H)-yl)benzoate]	83
CN(C)C(=O)c1cc2c(c(C3CC3)n1)CN(c1cc3c(cc1Cl)CCC(c1ncccc1F)O3)C(=O)N2 (centres unmarked) [Example 150, 3-(6-chloro-2-(3-fluoropyridin-2-yl)-3,4-dihydro-2H-chromen-7-yl)-5-cyclopropyl-N,N-dimethyl-2-oxo-1,2,3,4-tetrahydropyrido[4,3-d]pyrimidine-7-carboxamide]	98
O=C1Nc2ccccc2CN1c1cc(OCc2ncccc2F)ccc1Cl [Example 231, 3-(2-chloro-5-((3-fluoropyridin-2-yl)methoxy)phenyl)-3,4-dihydroquinazolin-2(1H)-one]	103
Cc1cc2c(cc1N1Cc3ccc(C(=O)NC4CC4)cc3NC1=O)OC(c1ncccc1F)CC2 (centres unmarked) [Example 184, N-cyclopropyl-3-(2-(3-fluoropyridin-2-yl)-6-methyl-3,4-dihydro-2H-chromen-7-yl)-2-oxo-1,2,3,4-tetrahydroquinazoline-7-carboxamide]	97
CCOC(=O)c1nccc2c1CN(c1cc3c(cc1Cl)CCC(c1ncccc1F)O3)C(=O)N2 (centres unmarked) [Example 56, ethyl 3-(6-chloro-2-(3-fluoropyridin-2-yl)-3,4-dihydro-2H-chromen-7-yl)-2-oxo-1,2,3,4-tetrahydropyrido[4,3-d]pyrimidine-5-carboxylate]	110
Cc1ccc(OCc2c(F)cccc2F)cc1N1Cc2cnccc2NC1=O [Example 235, 3-(5-((2,6-difluorobenzyl)oxy)-2-methylphenyl)-3,4-dihydropyrido[4,3-d]pyrimidin-2(1H)-one]	79
Cc1cc2c(cc1N1Cc3c(F)cnc(C4CC4)c3NC1=O)OC(c1ncccc1F)CC2 (centres unmarked) [Example 168, 8-cyclopropyl-5-fluoro-3-(2-(3-fluoropyridin-2-yl)-6-methyl-3,4-dihydro-2H-chromen-7-yl)-3,4-dihydropyrido[3,4-d]pyrimidin-2(1H)-one]	91
Cc1ccc(OCc2ncccc2F)cc1N1Cc2c(ccnc2C)NC1=O [Example 323, 3-(5-((3-fluoropyridin-2-yl)methoxy)-2-methylphenyl)-5-methyl-3,4-dihydropyrido[4,3-d]pyrimidin-2(1H)-one]	94
O=C(c1cc2c(c(C3CC3)n1)CN(c1cc3c(cc1Cl)CCC(c1ncccc1F)O3)C(=O)N2)N1CC(F)C1 (centres unmarked) [Example 145, 3-(6-chloro-2-(3-fluoropyridin-2-yl)-3,4-dihydro-2H-chromen-7-yl)-5-cyclopropyl-7-((3-fluoroazetidin-1-yl)carbonyl)-3,4-dihydropyrido[4,3-d]pyrimidin-2(1H)-one]	104
Cc1ccc(S(=O)(=O)Oc2ccc3c(c2)NC(=O)N(c2cc(OCc4ncccc4F)ccc2C)C3)cc1 [Example 252, 3-(5-((3-fluoropyridin-2-yl)methoxy)-2-methylphenyl)-2-oxo-1,2,3,4-tetrahydroquinazolin-7-yl 4-methylbenzenesulfonate]	105
O=C(CCc1ccc(OCc2ncccc2F)cc1N1Cc2ccccc2NC1=O)NC1CC1 [Example 280, N-cyclopropyl-3-(4-((3-fluoropyridin-2-yl)methoxy)-2-(2-oxo-1,4-dihydroquinazolin-3(2H)-yl)phenyl)propanamide]	62
Cc1ccc(OCc2c(F)cc(Cl)cc2F)cc1N1Cc2ccccc2NC1=O [Example 174, 3-(5-((4-chloro-2,6-difluorobenzyl)oxy)-2-methylphenyl)-3,4-dihydroquinazolin-2(1H)-one]	54
Cc1ccc(OCc2c(F)cccc2F)cc1N1Cc2ccc(C(N)=O)cc2NC1=O [Example 196, 3-(5-((2,6-difluorobenzyl)oxy)-2-methylphenyl)-2-oxo-1,2,3,4-tetrahydroquinazoline-7-carboxamide]	97
O=C(NCCO)c1cc2c(c(C3CC3)n1)CN(c1cc3c(cc1Cl)CCC(c1ncccc1F)O3)C(=O)N2 (centres unmarked) [Example 101, 3-(6-chloro-2-(3-fluoropyridin-2-yl)-3,4-dihydro-2H-chromen-7-yl)-5-cyclopropyl-N-(2-hydroxyethyl)-2-oxo-1,2,3,4-tetrahydropyrido[4,3-d]pyrimidine-7-carboxamide]	96
COC(=O)c1ccccc1CN1C(=O)N(c2cc(OCc3ncccc3F)ccc2C)Cc2c(Cl)cccc21 [Example 295, methyl 2-((5-chloro-3-(5-((3-fluoropyridin-2-yl)methoxy)-2-methylphenyl)-2-oxo-3,4-dihydroquinazolin-1(2H)-yl)methyl)benzoate]	102
O=C1Nc2cncc(Cl)c2CN1c1cc2c(cc1Cl)CCC(c1ncccc1F)O2 (centres unmarked) [Example 152, 5-chloro-3-(6-chloro-2-(3-fluoropyridin-2-yl)-3,4-dihydro-2H-chromen-7-yl)-3,4-dihydropyrido[3,4-d]pyrimidin-2(1H)-one]	103

Compound	inhibitory rate (%)
Cc1ccc(OCc2ncccc2F)cc1N1Cc2c(Cl)ncnc2NC1=O [Example 318, 5-chloro-3-(5-((3-fluoropyridin-2-yl)methoxy)-2-methylphenyl)-3,4-dihydropyrimido[4,5-d]pyrimidin-2(1H)-one]	62
O=C1Nc2cc(CO)ccc2CN1c1cc(OCc2c(F)cccc2F)ccc1Cl [Example 218, 3-(2-chloro-5-((2,6-difluorobenzyl)oxy)phenyl)-7-(hydroxymethyl)-3,4-dihydroquinazolin-2(1H)-one]	95
Cc1ccc(OCc2c(F)cccc2F)cc1N1Cc2cccc(CO)c2NC1=O [Example 194, 3-(5-((2,6-difluorobenzyl)oxy)-2-methylphenyl)-8-(hydroxymethyl)-3,4-dihydroquinazolin-2(1H)-one]	71
Cc1ccc(OCc2ncccc2F)cc1-n1c(=O)[nH]c2ccc(Cl)cc2c1=O [Example 355, 6-chloro-3-(5-((3-fluoropyridin-2-yl)methoxy)-2-methylphenyl)quinazoline-2,4(1H,3H)-dione]	94
Cc1ccc(OCc2ncccc2F)cc1-n1c(=O)[nH]c2cnccc2c1=O [Example 339, 3-(5-((3-fluoropyridin-2-yl)methoxy)-2-methylphenyl)pyrido[3,4-d]pyrimidine-2,4(1H,3H)-dione]	106
COC(=O)c1ccc2c(c1)NC(=O)N(c1cc(OCc3nccs3)ccc1C)C2 [Example 237, methyl 3-(2-methyl-5-(1,3-thiazol-2-ylmethoxy)phenyl)-2-oxo-1,2,3,4-tetrahydroquinazoline-7-carboxylate]	100
Cc1cc2c(cc1N1Cc3cccnc3NC1=O)OC(c1ncccc1F)CC2 (centres unmarked) [Example 40, 3-(2-(3-fluoropyridin-2-yl)-6-methyl-3,4-dihydro-2H-chromen-7-yl)-3,4-dihydropyrido[2,3-d]pyrimidin-2(1H)-one]	108
Cc1nc(C)c2c(c1Cl)CN(c1cc3c(cc1Cl)CCC(c1ncccc1F)O3)C(=O)N2 (centres unmarked) [Example 79, 5-chloro-3-(6-chloro-2-(3-fluoropyridin-2-yl)-3,4-dihydro-2H-chromen-7-yl)-6,8-dimethyl-3,4-dihydropyrido[3,4-d]pyrimidin-2(1H)-one]	98
Cc1ccc(OCc2ncccc2F)cc1N1Cc2ccc(C(=O)Nc3ccccn3)cc2NC1=O [Example 271, 3-(5-((3-fluoropyridin-2-yl)methoxy)-2-methylphenyl)-2-oxo-N-(pyridin-2-yl)-1,2,3,4-tetrahydroquinazoline-7-carboxamide]	100
Cc1ccc(OCc2ncccc2F)cc1-n1c(=O)[nH]c2cnc(Cl)cc2c1=O [Example 342, 6-chloro-3-(5-((3-fluoropyridin-2-yl)methoxy)-2-methylphenyl)pyrido[3,4-d]pyrimidine-2,4(1H,3H)-dione]	101
O=C1Nc2cc(N3CCOCC3)nc(C3CC3)c2CN1c1cc2c(cc1Cl)CCC(c1ncccc1F)O2 (centres unmarked) [Example 59, 3-(6-chloro-2-(3-fluoropyridin-2-yl)-3,4-dihydro-2H-chromen-7-yl)-5-cyclopropyl-7-(morpholin-4-yl)-3,4-dihydropyrido[4,3-d]pyrimidin-2(1H)-one]	107
Cc1ccc(OCc2ncccc2F)cc1N1Cc2ccc(C(F)(F)F)cc2NC1=O [Example 275, 3-(5-((3-fluoropyridin-2-yl)methoxy)-2-methylphenyl)-7-(trifluoromethyl)-3,4-dihydroquinazolin-2(1H)-one]	101
O=C1Nc2ccccc2CN1c1cc(OCc2ncccc2F)ccc1C1CC1 [Example 213, 3-(2-cyclopropyl-5-((3-fluoropyridin-2-yl)methoxy)phenyl)-3,4-dihydroquinazolin-2(1H)-one]	114
COC(=O)c1ccc2c(c1)NC(=O)N(c1cc(OCc3ccc(F)cc3F)ccc1C)C2 [Example 200, methyl 3-(5-((2,4-difluorobenzyl)oxy)-2-methylphenyl)-2-oxo-1,2,3,4-tetrahydroquinazoline-7-carboxylate]	100
CC(C)(C)Cc1ccc(OCc2c(F)cccc2F)cc1N1Cc2ccc(CO)cc2NC1=O [Example 294, 3-(5-((2,6-difluorobenzyl)oxy)-2-(2,2-dimethylpropyl)phenyl)-7-(hydroxymethyl)-3,4-dihydroquinazolin-2(1H)-one]	65
O=C1Nc2ccnc(Cl)c2CN1c1cc2c(cc1Cl)CC[C@H](c1ncccc1F)O2 [Example 3, 5-chloro-3-((2R)-6-chloro-2-(3-fluoropyridin-2-yl)-3,4-dihydro-2H-chromen-7-yl)-3,4-dihydropyrido[4,3-d]pyrimidin-2(1H)-one]	97
